Experimental findings from ChEMBL document CHEMBL1201862, “PubChem BioAssay data set” (2004) are described below.

The structures appear in SMILES notation.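 Growth conditions: 96-well plates. Treatment: test compound, 48 hours, 5 concentrations. Analysis: linear interpolation between bracketing concentrations; unreached endpoints set to highest concentration. At the GI50, growth is halved.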 Activity calls are given as the source filed them. Rule as the data show it: active = GI50 up to about 1.1 µM and inactive = higher.

Some test systems named below: HOP-62; OVCAR-8; NCI/ADR-RES; SK-OV-3; HCT-15; RXF 393; NCI-H226; HL-60; OVCAR-4; SNB-75; SN12C; Hs-578T; 786-0; A498; CCRF-CEM; U-251; NCI-H23; A549; HCC 2998.
What all share (assay): growth of human tumour cells (NCI), 48 h

Consider `CC(C)c1ccccc1[S+]([O-])c1ccccc1C(C)(C)O` (stereo not drawn), for which the GI50 was 22.5 µM (inactive) with HOP-62; > 100 µM (inactive) in the experiment with OVCAR-8; 64.6 µM (inactive) in the experiment on NCI/ADR-RES; 30.9 µM (inactive) in the experiment with SK-OV-3; 82 µM in the experiment with HCT-15; > 100 µM (inactive) in the experiment with RXF 393. For the same compound, the GI50 was 21.3 µM (inactive) in the experiment with NCI-H226; 82.6 µM (inactive) in the experiment on HL-60; > 100 µM (inactive) in the experiment on OVCAR-4; 32.3 µM (inactive) with SNB-75; > 100 µM (inactive) with SN12C; 50.4 µM (inactive) in the experiment with Hs-578T. Also, the GI50 is > 100 µM (inactive) in the experiment on 786-0; 20 µM (inactive) in the experiment with A498; > 100 µM (inactive) in the experiment on CCRF-CEM; 18.9 µM (inactive) in the experiment with U-251; > 100 µM (inactive) in the experiment on NCI-H23; 44.2 µM (inactive) with A549.
`CC(=O)OC[C@@H]1[C@H]2CC[C@]3(C)[C@@H](OC(C)=O)CC[C@H]3[C@@H]2CC[C@H]1C1(C)SCCS1`: the GI50 with HOP-62 was > 25 µM (inactive); with OVCAR-8 it was > 25 µM (inactive); with NCI/ADR-RES it was > 25 µM (inactive); in the experiment with HCC 2998 it was > 25 µM (inactive); in the experiment with HCT-15 it was above 25 µM; with RXF 393, > 25 µM (inactive). Besides, the GI50 in the experiment with NCI-H226, with HL-60, with OVCAR-4, with SNB-75, with SN12C and with Hs-578T was > 25 µM (inactive) throughout. Also, the GI50 in the experiment with 786-0, in the experiment with A498, with CCRF-CEM, in the experiment with U-251, in the experiment on NCI-H23 and in the experiment with A549 was > 25 µM (inactive) in each case.
Consider `O=C(O)c1cccc(NC(C(=O)c2ccccc2)c2ccccc2)c1` (stereo not drawn), for which the GI50 is > 100 µM (inactive) in the experiment on HOP-62; > 100 µM (inactive) in the experiment with OVCAR-8; > 100 µM (inactive) with NCI/ADR-RES; > 100 µM (inactive) in the experiment on HCC 2998; > 100 µM (inactive) in the experiment on SK-OV-3; above 100 µM with HCT-15. Moreover, the GI50 with RXF 393 is > 100 µM (inactive); in the experiment on HL-60 it was > 100 µM (inactive); in the experiment on SN12C it was > 100 µM (inactive); with Hs-578T, 0.714 µM (active); with 786-0, > 100 µM (inactive); in the experiment on A498, > 100 µM (inactive). Also, the GI50 in the experiment with CCRF-CEM, in the experiment with U-251, in the experiment on NCI-H23 and in the experiment on A549 was > 100 µM (inactive) throughout.
For the compound `Cn1c2ccc([N+](=O)[O-])cc2c(=O)c2c(O)cc(O)cc21`, the GI50 is 13.2 µM (inactive) in the experiment on OVCAR-8; 17 µM (inactive) with NCI/ADR-RES; > 100 µM (inactive) with HCC 2998; 60.3 µM with HCT-15; 25.7 µM (inactive) in the experiment with RXF 393; 53.2 µM (inactive) with NCI-H226. In addition, the GI50 in the experiment on HL-60 was > 100 µM (inactive); with OVCAR-4 it was 31.2 µM (inactive); in the experiment on SNB-75, 4.15 µM (inactive); with SN12C, 31.4 µM (inactive); in the experiment on Hs-578T, 27.5 µM (inactive); with 786-0, 19 µM (inactive). Moreover, the GI50 is > 100 µM (inactive) with A498, > 100 µM (inactive) with CCRF-CEM, 15.7 µM (inactive) in the experiment with U-251 and 29.4 µM (inactive) in the experiment with A549.
For the compound `O=C(COc1ccc(Cl)c(Cl)c1)N(Cc1ccccc1)Cc1ccc[n+](Cc2ccc(Cl)cc2S(=O)(=O)F)c1`, the GI50 with HOP-62 is > 100 µM (inactive); with OVCAR-8, > 100 µM (inactive); in the experiment with NCI/ADR-RES, > 100 µM (inactive); in the experiment on SK-OV-3, > 100 µM (inactive); with HCT-15, 31.5 µM; in the experiment on RXF 393 it was > 100 µM (inactive). Besides, the GI50 was > 100 µM (inactive) with NCI-H226; 30.9 µM (inactive) in the experiment with HL-60; > 100 µM (inactive) in the experiment with OVCAR-4; > 100 µM (inactive) in the experiment with SNB-75; > 100 µM (inactive) with SN12C; 40.8 µM (inactive) with Hs-578T. Moreover, the GI50 with 786-0 was > 100 µM (inactive); in the experiment on A498 it was > 100 µM (inactive); with U-251 it was 25.8 µM (inactive); in the experiment with NCI-H23, 41.3 µM (inactive); in the experiment on A549 it was > 100 µM (inactive).
As to `CCC(C(=O)c1cccs1)C(O)(C(F)(F)F)C(F)(F)F` (stereo not drawn), the GI50 in the experiment on HOP-62 is > 100 µM (inactive); in the experiment with OVCAR-8, > 100 µM (inactive); with NCI/ADR-RES, > 100 µM (inactive); with SK-OV-3 it was > 100 µM (inactive); in the experiment on HCT-15, above 100 µM; with RXF 393, > 100 µM (inactive). In addition, the GI50 is > 100 µM (inactive) in the experiment on NCI-H226; 3.39 µM (inactive) in the experiment on HL-60; > 100 µM (inactive) with OVCAR-4; > 100 µM (inactive) in the experiment with SNB-75; > 100 µM (inactive) in the experiment on SN12C; > 100 µM (inactive) with Hs-578T. For the same compound, the GI50 with 786-0, with A498, in the experiment on U-251, with NCI-H23 and with A549 was > 100 µM (inactive) in each case.
`CC(=O)OCCC1c2ccccc2-n2nc(-c3ccccc3)c(O)c21` (stereo not drawn): the GI50 in the experiment on HOP-62 was 15.2 µM (inactive); with OVCAR-8, 15.7 µM (inactive); in the experiment on NCI/ADR-RES, 14.8 µM (inactive); in the experiment on HCC 2998 it was 24.8 µM (inactive); in the experiment with HCT-15, 16.8 µM; with RXF 393 it was 12.3 µM (inactive). The GI50 with NCI-H226 was 26 µM (inactive); in the experiment on HL-60, 11.1 µM (inactive); with OVCAR-4, 14.3 µM (inactive); with SNB-75 it was 20.8 µM (inactive); in the experiment on SN12C it was 14.8 µM (inactive); with Hs-578T, 19.5 µM (inactive). Besides, the GI50 is 18.6 µM (inactive) in the experiment with 786-0; 16.4 µM (inactive) in the experiment with A498; 11.6 µM (inactive) in the experiment on CCRF-CEM; 13.3 µM (inactive) with U-251; 16.6 µM (inactive) in the experiment with NCI-H23; 17.7 µM (inactive) in the experiment on A549.
With `CC(C)(OCc1ccccc1)c1ccccc1P(c1ccccc1)c1ccccc1`, the GI50 with HOP-62 is 60 µM (inactive); with OVCAR-8 it was 39.9 µM (inactive); in the experiment on NCI/ADR-RES, 50.7 µM (inactive); in the experiment with SK-OV-3 it was > 100 µM (inactive); with HCT-15, 36.4 µM; in the experiment with RXF 393, > 100 µM (inactive). The GI50 was 69.2 µM (inactive) in the experiment on NCI-H226; 13.5 µM (inactive) in the experiment with HL-60; 31.3 µM (inactive) in the experiment on OVCAR-4; > 100 µM (inactive) in the experiment on SNB-75; 46 µM (inactive) with SN12C; 47.9 µM (inactive) in the experiment on Hs-578T. In addition, the GI50 in the experiment with 786-0 was 66.4 µM (inactive); with A498 it was 89.3 µM (inactive); in the experiment with U-251, 27.9 µM (inactive); in the experiment on NCI-H23, 21.7 µM (inactive); with A549, 38.7 µM (inactive).
Turning to `CC1=CCC(C)=Nc2nc3ccccc3n21`, the GI50 is > 100 µM (inactive) in the experiment on HOP-62; > 100 µM (inactive) in the experiment on OVCAR-8; > 100 µM (inactive) with NCI/ADR-RES; > 100 µM (inactive) in the experiment on SK-OV-3; above 100 µM with HCT-15; > 100 µM (inactive) in the experiment on RXF 393. The GI50 in the experiment on NCI-H226, in the experiment on HL-60, in the experiment on OVCAR-4, in the experiment on SN12C, in the experiment on Hs-578T and in the experiment with 786-0 was > 100 µM (inactive) each time. For the same compound, the GI50 in the experiment with A498, in the experiment on CCRF-CEM, with U-251, in the experiment on NCI-H23 and with A549 was > 100 µM (inactive) throughout.
In the case of `CC(=O)OC1(C)CC(C)C(=O)C(C(O)CC2CC(=O)NC(=O)C2)C1` (stereo not drawn), the GI50 in the experiment with HOP-62 is 0.0193 µM (active); in the experiment on OVCAR-8 it was 0.0122 µM (active); with NCI/ADR-RES it was 0.0386 µM (active); in the experiment on HCC 2998 it was 0.01 µM (active); with HCT-15, 0.0348 µM; with RXF 393, 0.01 µM (active). For the same compound, the GI50 with NCI-H226 is 0.0448 µM (active); in the experiment with HL-60, 0.00955 µM (active); in the experiment with OVCAR-4, 0.0184 µM (active); with SNB-75, 0.504 µM (active); with SN12C, 0.00822 µM (active); in the experiment with Hs-578T, 0.0223 µM (active). For the same compound, the GI50 is 0.0204 µM (active) with 786-0; 0.0201 µM (active) in the experiment with A498; 0.00507 µM (active) in the experiment on CCRF-CEM; 0.00697 µM (active) in the experiment with U-251; 0.00807 µM (active) with NCI-H23; 0.00729 µM (active) in the experiment with A549.
Turning to `C=C(C)[C@@H]1CC[C@]2(C(=O)OC)CC[C@]3(C)[C@H](CC[C@@H]4[C@@]5(C)CC[C@H](O)C(C)(C)[C@@H]5CC[C@]43C)[C@@H]12` [METHYL BETULINATE], the GI50 in the experiment on HOP-62 is 18.8 µM (inactive); in the experiment on OVCAR-8, 21.5 µM (inactive); in the experiment on NCI/ADR-RES, 19 µM (inactive); with HCT-15, 20.5 µM; with RXF 393, 14.5 µM (inactive); with NCI-H226, 20 µM (inactive). The GI50 with HL-60 was 35.5 µM (inactive); with SNB-75 it was 21.6 µM (inactive); in the experiment with SN12C, 16.1 µM (inactive); in the experiment with Hs-578T, 21.6 µM (inactive); with 786-0, 19.7 µM (inactive); with A498, 18.9 µM (inactive). The GI50 was 19.4 µM (inactive) in the experiment with CCRF-CEM, 17.8 µM (inactive) with U-251, 30.3 µM (inactive) in the experiment on NCI-H23 and 17.7 µM (inactive) in the experiment with A549.
